Here are results for 14 molecules from patent US5340811A, “Isoquinoline-or quinoline-sulfonamide derivative and a pharmaceutical composition comprising the same” (priority 1990, dated 1994).

Structures are written as SMILES. Structures can show the parent of a compound that is named as a salt.

The conditions of test [1]: known from literature/patents; cited from earlier work.
For test [2] the following is noted: known from literature/patents; cited from earlier work. The source holds these as a separate data set.
The next test concerns trachea of a guinea pig. Description: Effect on trachea in vivo: inhibition of histamine-induced tracheal contraction (modified Konzett-Rossler method). The note with it: for suppression of histamine-induced bronchial contraction: contraction induced by intravenous administration of 1 mg/kg of histamine (as printed in text); for inhibition in vivo at 1 mg/kg: Cavia porcellus, iv, 0.05 h, compound 1 mg/kg via femoral vein, histamine 20 μg/kg i.v. after 3 minutes, urethane anesthesia, n=3, non-salt compounds used as hydrochloride. An excerpt:
According to a modified method of Konzett-Rossler method [see J. Martinez et al, Bronchial Arterial Injections, vol. […] Urethane was intraperitoneally administered to male guinea pigs weighing 350 to 600 g (Hartley strain, Kuroda Junkei Dobutsu) in an amount of 1.5 g/kg of body weight to anesthetize the animals. Then, cannulae were inserted into the trachea and femoral vein of each animal under urethane anesthesia and fixed. […] Each of the above-mentioned compounds of the present invention was administered to guinea pigs through the femoral vein in an amount of 1 mg/kg of body weight. […] As a solvent for each compound, physiological saline was used. The number of the guinea pigs tested in each group was 3.

Test [3] deals with tracheal specimens excised from guinea pigs. Description: Inhibitory effect on KCl-induced contraction of tracheal specimens excised from guinea pigs. The format is cell-based, guinea pig. Conditions: Cavia porcellus; dose relaxing KCl (20 mM)-induced contraction to 50%; 37° C.; n=3; non-salt compounds used as hydrochloride; read-out: ED50 (KCl-induced contraction). An excerpt:
According to a method in which tracheal specimens excised from guinea pigs were used (Takagi and Ozawa, "Yakubutsugaku Jikken (Experiments in Pharmacology)", pp.100-102, 1960, published by Nanzando Japan; and Fujiwara and Shibata, "Yakurigaku Kiso Jikenho (Methods of Fundamental Experiments in Pharmacology)" pp.131-134, 1982, published by Kyourin, Japan), relaxing effect of sulfonamide derivatives of the present invention on bronchial smooth muscle was examined. […] After the KCl-induced contraction became stable, each of the compounds of the present invention was dissolved in distilled water or physiological saline, and the compound solution was cumulatively added into the Magnus tube. The relaxing effect of each of the compounds of the present invention on contracted tracheal specimens was evaluated and a dose-response curve was obtained. A dose required for relaxing KCl-induced contraction to 50%, i.e., ED50 was calculated from the dose-response curve. […] The number of tracheal specimens in each group was 3.

Test [4] has the same test system. Briefly: Inhibitory effect on PGF2α-induced contraction of tracheal specimens excised from guinea pigs. It is filed as cell-based, guinea pig. The note with it: Cavia porcellus; dose relaxing PGF2α (final 1 μm)-induced contraction to 50%; n=3; non-salt compounds used as hydrochloride; read-out: PGF2α-induced contraction ED50 (Table 18).
Procedure: Tracheal specimens excised from male guinea pigs weighing 350 to 500 g (Hartley strain, Kuroda Junkei Dobutsu) were contracted in substantially the same manner as in Application Example 1 except that PGF2α (final concentration: 1 μm) was used instead of KCl. After the contraction of the tracheal specimens became stable, each of the compounds (hydrochloride) of the present invention was dissolved in distilled water or physiological saline, and the compound solution was cumulatively added into the Magnus tube in the same manner as in Application Example 1. The relaxing effect of each of the compounds of the present invention on the contracted specimens was evaluated and a dose-response curve was obtained. The dose required for relaxing PGF2α-induced contraction to 50%, i.e., ED50 was calculated form the dose-response curve. […] For comparison, the same procedure as described above was repeated except that aminophylline, comparative compound (1) and comparative compound (2) were individually used instead of the compound of the present invention, to obtain an ED50. The number of specimens in each group was 3.

`NC1CCCN(S(=O)(=O)c2cccc3cnccc23)C1` (stereo not shown) [1-(5-isoquinolinesulfonyl)-3-aminopiperidine]: the bronchodilating activity result in test [1] was “bronchodilating activity”. Further, the vasodilating activity entry in test [2] is recorded as “vasodiletic activity”.

Consider `O=S(=O)(NCCNCc1ccc2c(c1)OCO2)c1cccc2cnccc12` [(3), N-[2(3,4-methylenedioxybenzylamino)ethyl]-5-isoquinolinesulfonamide], for which the “suppression of histamine-induced bronchial contraction” value (from here on “suppression”) in the test on trachea of a guinea pig came to 36%.

`O=S(=O)(NCCN1CCN(Cc2ccc3c(c2)OCO3)CC1)c1cccc2cnccc12` [(30), 1-(5-isoquinolinesulfonylaminoethyl)-4-(3,4-methylenedioxybenzyl)piperazine]: the inhibition in vivo at 1 mg/kg in the test on trachea of a guinea pig came to 31%.

Regarding `O=S(=O)(NCCN1CCCN(Cc2ccc3c(c2)OCO3)CC1)c1cccc2cnccc12` [(31), 1-(5-isoquinolinesulfonylaminoethyl)-4-(3,4-methylenedioxybenzyl)homopiperazine], in the test with trachea of a guinea pig, the inhibition in vivo at 1 mg/kg came out at 35%.

For `O=S(=O)(NCCN1CCNCC1)c1cccc2c(O)nccc12` [(32), 1-(1-hydroxy-5-isoquinolinesulfonylaminoethyl) piperazine hydrochloride], in test [3], the EC50 was 27 µM.

For the molecule `O=S(=O)(NCCN1CCCNCC1)c1cccc2c(O)nccc12` [(33), 1-(1-hydroxy-5-isoquinolinesulfonylaminoethyl) homopiperazine hydrochloride], the EC50 in test [3] stood at 24 µM.

Take `O=S(=O)(NCCN1CCCN(Cc2ccc3c(c2)OCO3)CC1)c1cccc2c(O)nccc12` [(35), hydrochloride]: the EC50 in test [3] stood at 18 µM.

In the case of `O=S(=O)(NCCN1CCCNCC1)c1ccc(Cl)c2ncccc12` [(36), 1-(8-chloro-5-quinolinesulfonylaminoethyl)homopiperazine], the inhibition in vivo at 1 mg/kg in the test with trachea of a guinea pig turned out to be 22%.

Turning to `O=S(=O)(NCCN1CCCN(Cc2ccc3c(c2)OCO3)CC1)c1ccc(Cl)c2ncccc12` [(38), 1-(8-chloro-5-quinolinesulfonylaminoethyl)-4-(3,4-methylenedioxybenzyl)homopiperazine], in the test with trachea of a guinea pig, the inhibition in vivo at 1 mg/kg was 45% and the “suppression” value is given as 45%.

Turning to `Cn1c(=O)c2[nH]cnc2n(C)c1=O` [Aminophylline, aminophylline], the EC50 in test [4] is no less than 200 µM. Also, the “suppression” value with trachea of a guinea pig was found to be 7%.

For `CCCCCCN(CCN)S(=O)(=O)c1cccc2cnccc12.Cl` [Comparative compound (1), N-(2-aminoethyl)-N-hexyl-5-isoquinolinesulfonamide hydrochloride], the “suppression” value with trachea of a guinea pig is on record as 9%.

Turning to `Cl.NC1CCCN(S(=O)(=O)c2cccc3cnccc23)C1` (stereo not shown) [Comparative compound (2), 1-(5-isoquinolinesulfonyl)-3-aminopiperidine hydrochloride], the “suppression” value in the test with trachea of a guinea pig is given as 12%.

Turning to `CCCCCCN(CCN)S(=O)(=O)c1cccc2cnccc12` [N-(2-aminoethyl)-N-hexyl-5-isoquinolinesulfonamide], in test [1], the bronchodilating activity entry is listed as “bronchodilating activity”. In test [2], the vasodilating activity entry was “vasodiletic activity”.

As for `N=C(N)NCCNS(=O)(=O)c1cccc2cnccc12` [N-(2-guanidinoethyl)-5-isoquinolinesulfonamide], the bronchodilating activity result in test [1] is listed as “bronchodilating activity”. Also, the vasodilating activity entry in test [2] is on record as “vasodiletic activity”.
